Results: patent US20230382925A1, “MODULATORS OF CYSTIC FIBROSIS TRANSMEMBRANE CONDUCTANCE REGULATOR” (VERTEX PHARMACEUTICALS INCORPORATED, priority 2020, published 2023)
pEC50: −log10 of the molar value. Read-outs that look alike come from different tables or passages of the source.

Biological target: CFTR (Homo sapiens, UniProt P13569)
Test: Membrane Potential Dye, Enteroid Assay B
Format: cell-based
Procedure: Base medium (ADF+++) consisted of Advanced […], 2 mM Glutamax, 10 mM HEPES, 1 μg/mL penicillin/streptomycin.
Intestinal enteroid maintenance medium (IEMMN) consisted of ADF+++, 1× B27 supplement, 1× N2 supplement, 1.25 mM N-acetyl cysteine, 10 mM Nicotinamide, 50 ng/mL hEGF, 10 nM Gastrin, 1 μg/mL hR-spondin-1, 100 ng/mL hNoggin, TGF-b type 1 inhibitor A-83-01, 100 μg/mL Primocin, 10 μM P38 MAPK inhibitor SB202190.
Bath 1 Buffer consisted of 1 mM MgCl2, 160 mM NaCl, 4.5 mM KCl, 10 mM HEPES, 10 mM Glucose, 2 mM CaCl2).
Chloride Free Buffer consisted of 1 mM Magnesium Gluconate, 2 mM Calcium Gluconate, 4.5 mM Potassium Gluconate, 160 mM Sodium Gluconate, 10 mM HEPES, 10 mM Glucose.
Bath 1 Dye Solution consisted of Bath 1 Buffer, 0.04% Pluronic F127, 20 μM Methyl Oxonol, 30 μM CaCCinh-A01, 30 μM Chicago Sky Blue.
Chloride Free Dye Solution consisted of Chloride Free Buffer, 0.04% Pluronic F127, 20 μM Methyl Oxonol, 30 μM CaCCinh-A01, 30 μM Chicago Sky Blue.
Chloride Free Dye Stimulation Solution consisted of Chloride Free Dye Solution, 10 μM forskolin, 100 μM IBMX, and 300 nM Compound III.
Human intestinal epithelial enteroid cells were obtained from the Hubrecht Institute for Developmental Biology and Stem Cell Research, Utrecht, The Netherlands and expanded in T-Flasks as previously described (Dekkers J F, Wiegerinck C L, de Jonge H R, Bronsveld I, Janssens H M, de Winter-de Groot K M, Brandsma A M, de Jong N W M, Bijvelds M J C, Scholte B J, Nieuwenhuis E E S, van den Brink S, Clevers H, van der Ent C K, Middendorp S and M Beekman J M. A functional CFTR assay using primary cystic fibrosis intestinal organoids. Nat Med. 2013 July; 19(7):939-45.).
3. Enteroid Cell Harvesting and Seeding
Cells were recovered in cell recovery solution, collected by centrifugation at 650 rpm for 5 min at 4° C., resuspended in TrypLE and incubated for 5 min at 37° C. Cells were then collected by centrifugation at 650 rpm for 5 min at 4° C. and resuspended in IEMM containing 10 μM ROCK inhibitor (RI). The cell suspension was passed through a 40 μm cell strainer and resuspended at 1×10^6 cells/mL in IEMM containing 10 μM RI. Cells were seeded at 5000 cells/well into multi-well plates and incubated for overnight at 37° C., 95% humidity and 5% CO2 prior to assay.
5. Membrane Potential Dye, Enteroid Assay B
Enteroid cells were incubated with test compound in IEMM for 18-24 hours at 37° C., 95% humidity and 5% CO2. […] Briefly, cells were washed 5 times in Bath 1 Buffer. Bath 1 Dye Solution was added and the cells were incubated for 25 min at room temperature. Following dye incubation, cells were washed 3 times in Chloride Free Dye Solution. Chloride transport was initiated by addition of Chloride Free Dye Stimulation Solution and the fluorescence signal was read for 15 min. […] Chloride transport was then expressed as a percentage of the chloride transport following treatment with 1 μM (14S)-8-[3-(2-{Dispiro[2.0.2.1]heptan-7-yl}ethoxy)-1H-pyrazol-1-yl]-12,12-dimethyl-2λ^6-thia-3,9,11,18,23-pentaazatetracyclo[17.3.1.111,14.05,10]tetracosa-1(22),5,7,9,19(23),20-hexaene-2,2,4-trione, 3 μM (R)-1-(2,2-difluorobenzo[d][1,3]dioxol-5-yl)-N-(1-(2,3-dihydroxypropyl)-6-fluoro-2-(1-hydroxy-2-methylpropan-2-yl)-1H-indol-5-yl)cyclopropanecarboxamide and 300 nM acute N-[2,4-bis(1,1-dimethylethyl)-5-hydroxyphenyl]-1,4-dihydro-4-oxoquinoline-3-carboxamide triple combination control (% Activity).

[1] = Table 10, read-out: Ent. B EC50

Sequence of CFTR (P13569 with tags, fused parts or gaps DEL508-508): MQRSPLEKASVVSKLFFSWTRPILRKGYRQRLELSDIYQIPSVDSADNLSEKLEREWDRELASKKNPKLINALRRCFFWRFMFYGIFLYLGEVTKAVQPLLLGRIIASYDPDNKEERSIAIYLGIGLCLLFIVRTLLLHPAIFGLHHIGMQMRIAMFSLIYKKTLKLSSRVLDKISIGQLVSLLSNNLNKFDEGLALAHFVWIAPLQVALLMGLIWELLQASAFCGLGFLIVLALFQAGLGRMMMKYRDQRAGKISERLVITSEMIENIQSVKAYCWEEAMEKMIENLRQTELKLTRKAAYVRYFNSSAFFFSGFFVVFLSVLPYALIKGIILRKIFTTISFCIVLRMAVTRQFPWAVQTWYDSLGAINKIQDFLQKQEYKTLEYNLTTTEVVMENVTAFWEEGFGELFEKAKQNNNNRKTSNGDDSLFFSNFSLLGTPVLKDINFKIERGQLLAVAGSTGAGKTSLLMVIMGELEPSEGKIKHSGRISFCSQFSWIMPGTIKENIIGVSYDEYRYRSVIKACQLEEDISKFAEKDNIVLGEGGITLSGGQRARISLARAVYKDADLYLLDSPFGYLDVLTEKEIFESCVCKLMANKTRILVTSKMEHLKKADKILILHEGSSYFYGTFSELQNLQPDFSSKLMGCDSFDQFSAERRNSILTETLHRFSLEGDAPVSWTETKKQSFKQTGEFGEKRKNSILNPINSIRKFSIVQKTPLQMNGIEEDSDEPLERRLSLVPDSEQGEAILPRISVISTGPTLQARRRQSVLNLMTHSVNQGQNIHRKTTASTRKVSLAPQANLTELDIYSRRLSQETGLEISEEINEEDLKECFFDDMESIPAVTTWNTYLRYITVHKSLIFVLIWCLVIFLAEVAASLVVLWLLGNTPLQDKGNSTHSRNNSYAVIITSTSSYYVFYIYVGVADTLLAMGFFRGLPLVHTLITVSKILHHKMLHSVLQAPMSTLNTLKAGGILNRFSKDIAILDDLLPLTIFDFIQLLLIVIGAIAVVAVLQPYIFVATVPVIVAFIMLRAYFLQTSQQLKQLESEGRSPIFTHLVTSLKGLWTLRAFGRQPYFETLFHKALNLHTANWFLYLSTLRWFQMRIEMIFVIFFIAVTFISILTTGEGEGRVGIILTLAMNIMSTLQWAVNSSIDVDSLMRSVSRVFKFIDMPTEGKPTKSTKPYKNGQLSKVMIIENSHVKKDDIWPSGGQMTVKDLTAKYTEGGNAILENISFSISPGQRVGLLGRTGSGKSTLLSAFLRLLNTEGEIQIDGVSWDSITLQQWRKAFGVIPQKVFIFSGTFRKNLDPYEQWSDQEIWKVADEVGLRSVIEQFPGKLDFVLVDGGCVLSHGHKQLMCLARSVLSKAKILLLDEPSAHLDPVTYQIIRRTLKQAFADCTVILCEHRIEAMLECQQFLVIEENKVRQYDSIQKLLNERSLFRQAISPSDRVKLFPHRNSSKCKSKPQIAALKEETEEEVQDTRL

CO[C@H]1C[C@@H](N2C(=O)c3cccc(c3)S(=O)(=O)Nc3nc(cc(-c4c(C)cccc4C)n3)OC[C@H]2CC(C)(C)C)C1 (single isomer, unassigned) [Compound 151]
Ent. B Max Activity (%): +++ (+++ is >60%) | pEC50 (read-out: Ent. B EC50): > 6.00

Cc1cccc(C)c1-c1cc2nc(n1)NS(=O)(=O)c1cccc(c1)C(=O)N([C@H]1C[C@@H](CC(C)(C)O)C1)[C@H](CC(C)(C)C)CO2 (single isomer, unassigned) [Compound 152]
Ent. B Max Activity (%) (Table 10): +++ (+++ is >60%) | pEC50 [1]: > 6.00

Cc1cccc(C)c1-c1cc2nc(n1)NS(=O)(=O)c1cccc(c1)C(=O)N([C@H]1C[C@@H](CC(C)(C)O)C1)[C@H](CC(C)(C)C)CO2 (single isomer, unassigned) [Compound 153]
Ent. B Max Activity (%) (Table 10): +++ (+++ is >60%) | pEC50 [1]: > 6.00

CC(=O)NCC[C@H]1C[C@@H](N2C(=O)c3cccc(c3)S(=O)(=O)Nc3nc(cc(-c4c(C)cccc4C)n3)OC[C@H]2CC(C)(C)C)C1 (single isomer, unassigned) [Compound 154]
Ent. B Max Activity (%) (Table 10): +++ (+++ is >60%) | pEC50 [1]: > 6.00

CC(=O)NCC[C@H]1C[C@@H](N2C(=O)c3cccc(c3)S(=O)(=O)Nc3nc(cc(-c4c(C)cccc4C)n3)OC[C@H]2CC(C)(C)C)C1 (single isomer, unassigned) [Compound 155]
Ent. B Max Activity (%) (Table 10): +++ (+++ is >60%) | pEC50 [1]: > 6.00

Cc1cccc(C)c1-c1cc2nc(n1)NS(=O)(=O)c1cccc(c1)C(=O)N([C@H]1C[C@@](C)(OC(F)(F)F)C1)[C@H](CC(C)(C)C)CO2 (single isomer, unassigned) [Compound 156]
Ent. B Max Activity (%) (Table 10): ++ (++ is 30-60%) | pEC50 [1]: > 6.00

Cc1cccc(C)c1-c1cc2nc(n1)NS(=O)(=O)c1cccc(c1)C(=O)N(C1CC(C)(OC(F)(F)F)C1)[C@H](CC(C)(C)C)CO2 (single isomer, unassigned) [Compound 157]
Ent. B Max Activity (%) (Table 10): ++ (++ is 30-60%) | pEC50 [1]: > 6.00

Cc1cccc(C)c1-c1cc2nc(n1)NS(=O)(=O)c1cccc(c1)C(=O)N(C1CC(CO)(C(C)(C)O)C1)[C@H](CC(C)(C)C)CO2 (single isomer, unassigned) [Compound 159]
Ent. B Max Activity (%) (Table 10): +++ (+++ is >60%) | pEC50 [1]: > 6.00

Cc1cccc(C)c1-c1cc2nc(n1)NS(=O)(=O)c1cccc(c1)C(=O)N(C1CC(CO)(C(C)(C)O)C1)[C@H](CC(C)(C)C)CO2 (single isomer, unassigned) [Compound 160]
Ent. B Max Activity (%) (Table 10): +++ (+++ is >60%) | pEC50 [1]: > 6.00

Cc1cccc(C)c1-c1cc2nc(n1)NS(=O)(=O)c1cccc(n1)C(=O)N(C1CC3(C1)CC(C(C)(C)O)C3)[C@H](CC(C)(C)C)CO2 (single isomer, unassigned) [Compound 161]
Ent. B Max Activity (%) (Table 10): +++ (+++ is >60%) | pEC50 [1]: > 6.00

Cc1cccc(C)c1-c1cc2nc(n1)NS(=O)(=O)c1cccc(n1)C(=O)N(C1CC3(C1)CC(C(C)(C)O)C3)[C@H](CC(C)(C)C)CO2 (single isomer, unassigned) [Compound 162]
Ent. B Max Activity (%) (Table 10): +++ (+++ is >60%) | pEC50 [1]: > 6.00

Cc1cccc(C)c1-c1cc2nc(n1)NS(=O)(=O)c1cccc(c1)C(=O)N(C1CC(N)C1)[C@H](CC(C)(C)C)CO2 (single isomer, unassigned) [Compound 165]
Ent. B Max Activity (%) (Table 10): ++ (++ is 30-60%) | pEC50 [1]: > 6.00

Cc1cccc(C)c1-c1cc2nc(n1)NS(=O)(=O)c1cccc(c1)C(=O)N(C1CC(N)C1)[C@H](CC(C)(C)C)CO2 (single isomer, unassigned) [Compound 166]
Ent. B Max Activity (%) (Table 10): ++ (++ is 30-60%) | pEC50 [1]: > 6.00

Cc1cccc(C)c1-c1cc2nc(n1)NS(=O)(=O)c1cccc(c1)C(=O)N([C@H]1C[C@@H](N3CCOC3=O)C1)[C@H](CC(C)(C)C)CO2 (single isomer, unassigned) [Compound 167]
Ent. B Max Activity (%) (Table 10): ++ (++ is 30-60%) | pEC50 [1]: > 6.00

COC(=O)N[C@H]1C[C@@H](N2C(=O)c3cccc(c3)S(=O)(=O)Nc3nc(cc(-c4c(C)cccc4C)n3)OC[C@H]2CC(C)(C)C)C1 (single isomer, unassigned) [Compound 168]
Ent. B Max Activity (%) (Table 9): +++ (+++ is >60%) | pEC50 (Table 9, read-out: Ent. B EC50): > 6.00

COC(=O)N(C)C1CC(N2C(=O)c3cccc(c3)S(=O)(=O)Nc3nc(cc(-c4c(C)cccc4C)n3)OC[C@H]2CC(C)(C)C)C1 (single isomer, unassigned) [Compound 169]
Ent. B Max Activity (%) (Table 10): +++ (+++ is >60%) | pEC50 [1]: > 6.00

COC(=O)N(C)C1CC(N2C(=O)c3cccc(c3)S(=O)(=O)Nc3nc(cc(-c4c(C)cccc4C)n3)OC[C@H]2CC(C)(C)C)C1 (single isomer, unassigned) [Compound 170]
Ent. B Max Activity (%) (Table 10): ++ (++ is 30-60%)

COC(=O)NC1(C)CC(N2C(=O)c3cccc(c3)S(=O)(=O)Nc3nc(cc(-c4c(C)cccc4C)n3)OC[C@H]2CC(C)(C)C)C1 (single isomer, unassigned) [Compound 171]
Ent. B Max Activity (%) (Table 10): +++ (+++ is >60%) | pEC50 [1]: > 6.00

COC(=O)NC1(C)CC(N2C(=O)c3cccc(c3)S(=O)(=O)Nc3nc(cc(-c4c(C)cccc4C)n3)OC[C@H]2CC(C)(C)C)C1 (single isomer, unassigned) [Compound 172]
Ent. B Max Activity (%) (Table 10): +++ (+++ is >60%) | pEC50 [1]: > 6.00

COC(=O)N(C)[C@]1(C)C[C@H](N2C(=O)c3cccc(c3)S(=O)(=O)Nc3nc(cc(-c4c(C)cccc4C)n3)OC[C@H]2CC(C)(C)C)C1 (single isomer, unassigned) [Compound 173]
Ent. B Max Activity (%) (Table 10): ++ (++ is 30-60%) | pEC50 [1]: > 6.00

Cc1cccc(C)c1-c1cc2nc(n1)NS(=O)(=O)c1cccc(c1)C(=O)N(C1CC3(COC(=O)N3C)C1)[C@H](CC(C)(C)C)CO2 (single isomer, unassigned) [Compound 174]
Ent. B Max Activity (%) (Table 10): ++ (++ is 30-60%) | pEC50 [1]: > 6.00

Cc1cccc(C)c1-c1cc2nc(n1)NS(=O)(=O)c1cccc(c1)C(=O)N(C1CC3(COC(=O)N3)C1)[C@H](CC(C)(C)C)CO2 (single isomer, unassigned) [Compound 175]
Ent. B Max Activity (%) (Table 10): ++ (++ is 30-60%) | pEC50 [1]: > 6.00

Cc1cccc(C)c1-c1cc2nc(n1)NS(=O)(=O)c1cccc(c1)C(=O)N(C1CC3(COC(=O)N3)C1)[C@H](CC(C)(C)C)CO2 (single isomer, unassigned) [Compound 176]
Ent. B Max Activity (%) (Table 10): ++ (++ is 30-60%) | pEC50 [1]: > 6.00

Cc1cccc(C)c1-c1cc2nc(n1)NS(=O)(=O)c1cccc(c1)C(=O)N(C1CC3(COC(=O)N3C)C1)[C@H](CC(C)(C)C)CO2 (single isomer, unassigned) [Compound 177]
Ent. B Max Activity (%) (Table 10): ++ (++ is 30-60%) | pEC50 [1]: > 6.00

Cc1cccc(C)c1-c1cc2nc(n1)NS(=O)(=O)c1cccc(c1)C(=O)N(C1CC(NC(=O)OC(C)C)C1)[C@H](CC(C)(C)C(F)(F)F)CO2 (single isomer, unassigned) [Compound 192]
Ent. B Max Activity (%) (Table 10): +++ (+++ is >60%) | pEC50 [1]: > 6.00

Cc1cccc(C)c1-c1cc2nc(n1)NS(=O)(=O)c1cccc(c1)C(=O)N(C1CC(NC(=O)OC(C)(C)C)C1)[C@H](CC(C)(C)C(F)(F)F)CO2 (single isomer, unassigned) [Compound 193]
Ent. B Max Activity (%) (Table 9): +++ (+++ is >60%) | pEC50 (Table 9, read-out: Ent. B EC50): > 6.00

Cc1cccc(C)c1-c1cc2nc(n1)NS(=O)(=O)c1cccc(c1)C(=O)N(C1CC(NC(=O)OC(C)(C)C)C1)[C@H](CC(C)(C)C(F)(F)F)CO2 (single isomer, unassigned) [Compound 194]
Ent. B Max Activity (%) (Table 9): +++ (+++ is >60%) | pEC50 (Table 9, read-out: Ent. B EC50): > 6.00
